# Assay results published in patent US20140163026A1, “8-ETHYL-6-(ARYL)PYRIDO[2,3-D]PYRIMIDIN-7(8H)-ONES FOR THE TREATMENT OF NERVOUS SYSTEM DISORDERS AND CANCER” (Afraxis Holdings, Inc., priority 2011, published 2014).
# Tests used:
# Type in all cases: biochemical
# PAK1 = PAK1 (Homo sapiens, UniProt Q13153); assay: In vitro PAK inhibition assay (SelectScreen, Ser/Thr 19 peptide)
# In short: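 Ten-point, 3-fold compound series at 1% final DMSO were incubated with enzyme, Ser/Thr 19 peptide and ATP for 60 min at room temperature. Buffer was HEPES pH 7.5 (50 mM) with 10 mM MgCl2, 1 mM EGTA, 0.01% BRIJ-35. A 60 min development step preceded the fluorescence read converted to % phosphorylation.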
# PAK2 (PAK65) = PAK2 (PAK65) (Homo sapiens, UniProt Q13177); assay: In vitro PAK inhibition assay (SelectScreen, Ser/Thr 20 peptide)
# In short: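 Ten-point threefold compound dilutions (1% DMSO) were incubated with PAK2 (0.29-6 ng) and Ser/Thr 20 substrate (2 μM) for 60 min at room temperature in HEPES pH 7.5 buffer with MgCl2, EGTA and BRIJ-35.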
# PAK3 = PAK3 (Homo sapiens, UniProt O75914); assay: as above
# In short: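 Fluorescence-based development format: after a 60-min room-temperature kinase reaction and 60-min protease development, percent phosphorylation of Ser/Thr 20 peptide calculated via phosphopeptide controls. Buffer 50 mM HEPES pH 7.5, 10 mM MgCl2, 1 mM EGTA, 0.01% BRIJ-35; compounds at 1% DMSO, 10-point 3-fold dilution series.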
# PAK4 = PAK4 (Homo sapiens, UniProt O96013); assay: as above
# In short: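 Ten-point, 3-fold compound series (1% DMSO) incubated 1 h at room temperature with PAK4 (0.1-0.75 ng) and 2 μM Ser/Thr 20 peptide, HEPES pH 7.5 buffer with MgCl2, EGTA, BRIJ-35. Development reagent cleaves non-phosphorylated peptide; fluorescence emission ratio gives % phosphorylation, fitted sigmoidally for IC50.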
# Sequence of PAK4 (O96013 whole entry): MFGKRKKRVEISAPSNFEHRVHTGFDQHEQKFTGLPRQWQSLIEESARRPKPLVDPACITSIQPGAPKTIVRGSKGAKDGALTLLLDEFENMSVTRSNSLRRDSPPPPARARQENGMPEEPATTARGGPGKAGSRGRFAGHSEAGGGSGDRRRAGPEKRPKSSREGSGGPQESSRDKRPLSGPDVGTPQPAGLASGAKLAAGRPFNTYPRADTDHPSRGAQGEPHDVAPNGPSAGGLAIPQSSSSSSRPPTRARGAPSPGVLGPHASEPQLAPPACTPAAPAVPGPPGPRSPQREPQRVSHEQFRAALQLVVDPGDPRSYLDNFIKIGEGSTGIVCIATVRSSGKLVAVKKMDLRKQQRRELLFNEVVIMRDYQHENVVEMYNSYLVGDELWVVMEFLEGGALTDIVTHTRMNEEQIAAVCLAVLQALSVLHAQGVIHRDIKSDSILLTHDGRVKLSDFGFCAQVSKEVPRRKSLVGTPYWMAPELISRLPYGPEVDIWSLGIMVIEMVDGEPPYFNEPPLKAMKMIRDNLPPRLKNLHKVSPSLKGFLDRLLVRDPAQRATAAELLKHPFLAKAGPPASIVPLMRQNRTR
# Sequence of PAK2 (PAK65) (Q13177 whole entry): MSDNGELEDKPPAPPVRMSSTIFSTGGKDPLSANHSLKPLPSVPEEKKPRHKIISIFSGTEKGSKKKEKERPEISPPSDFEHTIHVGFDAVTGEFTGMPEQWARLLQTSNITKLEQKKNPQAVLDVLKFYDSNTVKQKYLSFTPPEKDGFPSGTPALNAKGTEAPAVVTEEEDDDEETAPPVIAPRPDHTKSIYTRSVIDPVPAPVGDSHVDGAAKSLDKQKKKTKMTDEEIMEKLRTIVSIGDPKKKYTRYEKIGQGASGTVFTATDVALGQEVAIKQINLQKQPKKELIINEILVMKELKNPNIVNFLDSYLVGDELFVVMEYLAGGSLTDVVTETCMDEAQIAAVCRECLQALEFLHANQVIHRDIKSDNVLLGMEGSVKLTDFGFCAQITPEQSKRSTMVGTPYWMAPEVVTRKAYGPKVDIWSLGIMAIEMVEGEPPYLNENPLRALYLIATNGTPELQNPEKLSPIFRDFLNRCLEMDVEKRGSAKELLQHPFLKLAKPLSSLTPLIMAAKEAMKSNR
# Sequence of PAK1 (Q13153 whole entry): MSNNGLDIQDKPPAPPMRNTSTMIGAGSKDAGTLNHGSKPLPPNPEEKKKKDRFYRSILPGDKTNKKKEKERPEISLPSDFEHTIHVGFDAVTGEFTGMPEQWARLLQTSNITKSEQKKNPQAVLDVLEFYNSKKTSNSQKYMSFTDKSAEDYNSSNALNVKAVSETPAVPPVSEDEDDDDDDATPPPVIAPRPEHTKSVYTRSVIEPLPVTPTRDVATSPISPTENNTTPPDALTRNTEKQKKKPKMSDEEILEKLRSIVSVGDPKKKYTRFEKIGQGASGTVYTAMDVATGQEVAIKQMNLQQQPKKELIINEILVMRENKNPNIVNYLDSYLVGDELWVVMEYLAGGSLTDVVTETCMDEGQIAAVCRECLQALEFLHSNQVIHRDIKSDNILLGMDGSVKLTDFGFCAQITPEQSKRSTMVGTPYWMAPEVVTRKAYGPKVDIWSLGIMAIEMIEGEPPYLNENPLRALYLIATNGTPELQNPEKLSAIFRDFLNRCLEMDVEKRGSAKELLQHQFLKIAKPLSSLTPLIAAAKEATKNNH
# Sequence of PAK3 (O75914 whole entry): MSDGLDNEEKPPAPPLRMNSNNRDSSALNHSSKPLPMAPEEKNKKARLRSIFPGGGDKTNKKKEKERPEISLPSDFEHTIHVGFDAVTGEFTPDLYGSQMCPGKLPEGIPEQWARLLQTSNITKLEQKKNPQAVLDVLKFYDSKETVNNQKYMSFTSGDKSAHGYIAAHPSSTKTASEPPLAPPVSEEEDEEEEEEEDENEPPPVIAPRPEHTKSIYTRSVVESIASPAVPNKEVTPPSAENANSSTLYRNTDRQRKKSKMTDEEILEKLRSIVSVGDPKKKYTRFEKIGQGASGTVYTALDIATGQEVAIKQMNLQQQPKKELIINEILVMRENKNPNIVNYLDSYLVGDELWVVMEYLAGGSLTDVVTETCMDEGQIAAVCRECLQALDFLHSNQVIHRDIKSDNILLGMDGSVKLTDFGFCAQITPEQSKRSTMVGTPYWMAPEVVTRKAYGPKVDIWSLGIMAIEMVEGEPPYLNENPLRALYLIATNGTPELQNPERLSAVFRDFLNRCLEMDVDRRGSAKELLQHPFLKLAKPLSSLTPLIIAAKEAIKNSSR
Compound,IC50 (PAK1),IC50 (PAK2 (PAK65)),IC50 (PAK3),IC50 (PAK4)
CCn1c(=O)c(-c2ccc(C3CC3)cc2)cc2cnc(Nc3ccc(N4CCN(C)CC4)cc3)nc21,0.05 to 0.5 µM,0.5 to 5 µM,0.5 to 5 µM,≥ 5 µM
CCn1c(=O)c(-c2ccc(-c3cccs3)cc2)cc2cnc(Nc3ccc(N4CCN(C)CC4)cc3)nc21,0.05 to 0.5 µM,0.5 to 5 µM,> 5 µM,≥ 5 µM
CCn1c(=O)c(-c2ccc(-c3ccsc3)cc2)cc2cnc(Nc3ccc(N4CCN(C)CC4)cc3)nc21,0.05 to 0.5 µM,0.5 to 5 µM,0.05 to 0.5 µM,≥ 5 µM
CCn1c(=O)c(-c2ccc(-c3ccoc3)cc2)cc2cnc(Nc3ccc(N4CCN(C)CC4)cc3)nc21,0.05 to 0.5 µM,> 5 µM,> 5 µM,≥ 5 µM
CCn1c(=O)c(-c2ccc(-c3ccc(OC)nc3)cc2)cc2cnc(Nc3ccc(N4CCN(C)CC4)cc3)nc21,0.05 to 0.5 µM,0.05 to 0.5 µM,0.05 to 0.5 µM,≥ 5 µM
CCn1c(=O)c(-c2nc(C3CCNCC3)sc2C)cc2cnc(Nc3ccc(N4CCN(C)CC4)cc3)nc21,0.5 to 5 µM,> 5 µM,> 5 µM,≥ 5 µM
CCn1c(=O)c(-c2ccc(-c3cncnc3)cc2Cl)cc2cnc(Nc3ccc(C4CNCCO4)cc3)nc21 (centres unmarked),< 0.05 µM,< 0.05 µM,< 0.05 µM,0.5 to 5 µM
CCn1c(=O)c(-c2nc(C3CCN(C)CC3)sc2C)cc2cnc(Nc3ccc(N4CCN(C)CC4)cc3)nc21,> 5 µM,> 5 µM,> 5 µM,≥ 5 µM
CCn1c(=O)c(-c2ccc(-c3ccc(NC(C)=O)nc3)cc2Cl)cc2cnc(Nc3ccc(N4CCN(C)CC4)cc3)nc21,> 5 µM,0.5 to 5 µM,0.5 to 5 µM,≥ 5 µM
CCn1c(=O)c(-c2ccc(-c3cncnc3)cc2)cc2cnc(Nc3ccc(N4CCN(C)CC4)cc3)nc21,0.05 to 0.5 µM,0.05 to 0.5 µM,0.5 to 5 µM,≥ 5 µM
CCn1c(=O)c(-c2ccc(-c3cccc4ncccc34)cc2)cc2cnc(Nc3ccc(N4CCN(C)CC4)cc3)nc21,> 5 µM,> 5 µM,> 5 µM,≥ 5 µM
CCn1c(=O)c(-c2ccc(-c3cccs3)s2)cc2cnc(Nc3ccc(N4CCN(C)CC4)cc3)nc21,> 5 µM,> 5 µM,> 5 µM,≥ 5 µM
CCn1c(=O)c(-c2nc(C3CCN(C(C)=O)CC3)sc2C)cc2cnc(Nc3ccc(N4CCN(C)CC4)cc3)nc21,> 5 µM,> 5 µM,> 5 µM,≥ 5 µM
CCn1c(=O)c(-c2ccc(-c3cncnc3)cc2Cl)cc2cnc(Nc3ccc(C4CN(C)CCO4)cc3)nc21 (centres unmarked),< 0.05 µM,< 0.05 µM,< 0.05 µM,≥ 5 µM
CCn1c(=O)c(-c2ccc(-c3ncc(C)s3)cc2Cl)cc2cnc(Nc3ccc(N4CCN(C)CC4)cc3)nc21,< 0.05 µM,< 0.05 µM,0.05 to 0.5 µM,0.5 to 5 µM
CCn1c(=O)c(-c2ccc(-c3cncs3)cc2)cc2cnc(Nc3ccc(N4CCN(C)CC4)cc3)nc21,0.05 to 0.5 µM,0.5 to 5 µM,> 5 µM,≥ 5 µM
CCn1c(=O)c(-c2ccc(-c3cscn3)cc2Cl)cc2cnc(Nc3ccc(N4CCN(C)CC4)cc3)nc21,< 0.05 µM,0.05 to 0.5 µM,0.05 to 0.5 µM,≥ 5 µM
CCn1c(=O)c(-c2ccc(C3CC3)s2)cc2cnc(Nc3ccc(N4CCN(C)CC4)cc3)nc21,> 5 µM,> 5 µM,> 5 µM,≥ 5 µM
CCn1c(=O)c(-c2ccc(-c3csc(C)n3)s2)cc2cnc(Nc3ccc(N4CCN(C)CC4)cc3)nc21,> 5 µM,> 5 µM,> 5 µM,≥ 5 µM
CCn1c(=O)c(-c2ccc(-c3noc(C)n3)s2)cc2cnc(Nc3ccc(N4CCN(C)CC4)cc3)nc21,> 5 µM,> 5 µM,> 5 µM,≥ 5 µM
CCn1c(=O)c(-c2ccc(-c3ccccn3)s2)cc2cnc(Nc3ccc(N4CCN(C)CC4)cc3)nc21,> 5 µM,> 5 µM,> 5 µM,≥ 5 µM
CCn1c(=O)c(-c2ccc(-c3cccnc3)s2)cc2cnc(Nc3ccc(N4CCN(C)CC4)cc3)nc21,> 5 µM,> 5 µM,> 5 µM,≥ 5 µM

Compound,IC50 (PAK1),IC50 (PAK2 (PAK65)),IC50 (PAK3),IC50 (PAK4)
CCn1c(=O)c(-c2ccc(-c3nnn[nH]3)s2)cc2cnc(Nc3ccc(N4CCN(C)CC4)cc3)nc21,> 5 µM,> 5 µM,> 5 µM,≥ 5 µM
CCn1c(=O)c(-c2ccc(-c3nnn[nH]3)cc2Cl)cc2cnc(Nc3ccc(N4CCN(C)CC4)cc3)nc21,> 5 µM,> 5 µM,> 5 µM,≥ 5 µM
CCn1c(=O)c(-c2ccc(-c3ccc(OC)nc3)cc2Cl)cc2cnc(Nc3ccc(N4CCN(C)CC4)cc3)nc21,< 0.05 µM,< 0.05 µM,< 0.05 µM,0.05 to 0.5 µM
CC(=O)Nc1cc(-c2cc3cnc(Nc4ccc(CCN(C)C)cc4)nc3n(C)c2=O)c(Cl)cc1-c1cccnc1,0.05 to 0.5 µM,0.05 to 0.5 µM,0.05 to 0.5 µM,≥ 5 µM
Cc1cnc(-c2ccc(-c3cc4cnc(Nc5ccc(C6CCN(C)CC6)cc5)nc4n(C)c3=O)c(C)c2)s1,< 0.05 µM,< 0.05 µM,0.05 to 0.5 µM,0.5 to 5 µM
Cc1nc(-c2ccc(-c3cc4cnc(Nc5ccc(C6CCN(C)CC6)cc5)nc4n(C)c3=O)c(C)c2)no1,< 0.05 µM,< 0.05 µM,< 0.05 µM,≥ 5 µM
CCn1c(=O)c(-c2ccc(-c3nccnc3C)cc2C)cc2cnc(Nc3ccc(C4CCN(C)CC4)cc3)nc21,< 0.05 µM,< 0.05 µM,< 0.05 µM,≥ 5 µM
CC(=O)Nc1ncccc1-c1ccc(Cl)c(-c2cc3cnc(Nc4ccc(C5CCN(C)CC5)cc4)nc3n(C)c2=O)c1,0.05 to 0.5 µM,0.05 to 0.5 µM,0.5 to 5 µM,≥ 5 µM
CCn1c(=O)c(-c2ccc(-c3ncc(C)s3)cc2C)cc2cnc(Nc3ccc(C4CCN(C)CC4)cc3)nc21,< 0.05 µM,< 0.05 µM,0.05 to 0.5 µM,0.5 to 5 µM
CN1CCC(c2ccc(Nc3ncc4cc(-c5cc(-c6cccnc6N(C)C)ccc5Cl)c(=O)n(C)c4n3)cc2)CC1,0.5 to 5 µM,0.5 to 5 µM,> 5 µM,≥ 5 µM
CN1CCC(c2ccc(Nc3ncc4cc(-c5cc(-c6cnccn6)ccc5Cl)c(=O)n(C)c4n3)cc2)CC1,0.05 to 0.5 µM,0.5 to 5 µM,0.05 to 0.5 µM,≥ 5 µM
Cc1ccc(-c2cccnc2)cc1-c1cc2cnc(Nc3ccc(C4CCN(C)CC4)cc3)nc2n(C)c1=O,0.05 to 0.5 µM,0.5 to 5 µM,0.05 to 0.5 µM,≥ 5 µM
Cc1nc(-c2ccc(Cl)c(-c3cc4cnc(Nc5ccc(C6CCN(C)CC6)cc5)nc4n(C)c3=O)c2)no1,0.5 to 5 µM,0.5 to 5 µM,0.05 to 0.5 µM,≥ 5 µM
CN1CCC(c2ccc(Nc3ncc4cc(-c5cc(-c6ccncc6)ccc5Cl)c(=O)n(C)c4n3)cc2)CC1,0.5 to 5 µM,> 5 µM,> 5 µM,≥ 5 µM
CC(=O)N(C)c1ncccc1-c1ccc(Cl)c(-c2cc3cnc(Nc4ccc(C5CCN(C)CC5)cc4)nc3n(C)c2=O)c1,> 5 µM,> 5 µM,0.5 to 5 µM,≥ 5 µM
CN1CCC(c2ccc(Nc3ncc4cc(-c5cc(-c6ccccn6)ccc5Cl)c(=O)n(C)c4n3)cc2)CC1,0.05 to 0.5 µM,0.5 to 5 µM,0.05 to 0.5 µM,≥ 5 µM
Cc1cnc(-c2ccc(Cl)c(-c3cc4cnc(Nc5ccc(C6CCN(C)CC6)cc5)nc4n(C)c3=O)c2)s1,0.05 to 0.5 µM,> 5 µM,0.05 to 0.5 µM,≥ 5 µM
CN1CCC(c2ccc(Nc3ncc4cc(-c5cc(-c6nccc(N(C)C)n6)ccc5Cl)c(=O)n(C)c4n3)cc2)CC1,0.5 to 5 µM,> 5 µM,0.05 to 0.5 µM,0.5 to 5 µM
CC(=O)N(C)c1cc(-c2cc3cnc(Nc4ccc(CCN(C)C)cc4)nc3n(C)c2=O)c(Cl)cc1-c1cccnc1,0.05 to 0.5 µM,0.05 to 0.5 µM,0.05 to 0.5 µM,≥ 5 µM
CC(=O)Nc1ccc(-c2ccc(Cl)c(-c3cc4cnc(Nc5ccc(C6CCN(C)CC6)cc5)nc4n(C)c3=O)c2)cn1,> 5 µM,> 5 µM,> 5 µM,0.5 to 5 µM
CC(=O)Nc1ccnc(-c2ccc(Cl)c(-c3cc4cnc(Nc5ccc(C6CCN(C)CC6)cc5)nc4n(C)c3=O)c2)n1,> 5 µM,> 5 µM,> 5 µM,≥ 5 µM
CC(=O)N(C)c1ccc(-c2ccc(Cl)c(-c3cc4cnc(Nc5ccc(C6CCN(C)CC6)cc5)nc4n(C)c3=O)c2)cn1,> 5 µM,> 5 µM,> 5 µM,≥ 5 µM
